According to patent US7846655B2, “Compositions and methods for detecting a non plus-stranded RNA virus” (priority 2003, dated 2010):
Like-named read-outs stand apart in the source and are kept apart here.

Experiments:
human coronavirus 229E = assay: Replication of human coronavirus 229E (inventors' data, E64); format: cell-based; details: no conditions given
parainfluenza 2 = format: cell-based; details: Para2, 24 hours, control 243 ± 012
RSV = format: cell-based; details: 24 hours, control 116 ± 012
parainfluenza 1 = format: cell-based; details: Para1, 24 hours, control 245 ± 018
adenovirus = format: cell-based; details: Adeno, 24 hours, control 863 ± 100
influenza A = format: cell-based; details: FluA, 24 hours, control 189 ± 012
influenza B = format: cell-based; details: FluB, 24 hours, control 455 ± 022
parainfluenza 3 = format: cell-based; details: Para3, 24 hours, control 142 ± 014
SARS-coronavirus = details: Yount et al. PNAS 100:12995-13000 (2003); cited from earlier work
[1] = Glycycrrhizin 0.152 micrograms/ml
[2] = Glycycrrhizin 1.216 micrograms/ml
[3] = Glycycrrhizin 6.08 micrograms/ml

CC(C)C[C@H](NC(=O)[C@H]1O[C@@H]1C(=O)O)C(=O)NCCCCN=C(N)N (relative stereo) [E64, trans-Epoxysuccinyl-L-leucylamido-(4-guanidino)butane]
replication of human coronavirus 229E (human coronavirus 229E): inhibition in replication | Number of Infected Foci In R-Mix Cell Cultures (parainfluenza 2; E64 0.5 micrograms/ml): 223 | Number of Infected Foci In R-Mix Cell Cultures (parainfluenza 2; E64 5 micrograms/ml): 221 | Number of Infected Foci In R-Mix Cell Cultures (parainfluenza 2; E64 10 micrograms/ml): 205 | Number of Infected Foci In R-Mix Cell Cultures (RSV; E64 0.5 micrograms/ml): 107 | Number of Infected Foci In R-Mix Cell Cultures (RSV; E64 5 micrograms/ml): 115 | Number of Infected Foci In R-Mix Cell Cultures (RSV; E64 10 micrograms/ml): 103 | Number of Infected Foci In R-Mix Cell Cultures (parainfluenza 1; E64 0.5 micrograms/ml): 251 | Number of Infected Foci In R-Mix Cell Cultures (parainfluenza 1; E64 5 micrograms/ml): 243 | Number of Infected Foci In R-Mix Cell Cultures (parainfluenza 1; E64 10 micrograms/ml): 207 | Number of Infected Foci In R-Mix Cell Cultures (adenovirus; E64 0.5 micrograms/ml): 904 | Number of Infected Foci In R-Mix Cell Cultures (adenovirus; E64 5 micrograms/ml): 868 | Number of Infected Foci In R-Mix Cell Cultures (adenovirus; E64 10 micrograms/ml): 865 | Number of Infected Foci In R-Mix Cell Cultures (influenza A; E64 0.5 micrograms/ml): 174 | Number of Infected Foci In R-Mix Cell Cultures (influenza A; E64 5 micrograms/ml): 179 | Number of Infected Foci In R-Mix Cell Cultures (influenza A; E64 10 micrograms/ml): 176 | Number of Infected Foci In R-Mix Cell Cultures (influenza B; E64 0.5 micrograms/ml): 398 | Number of Infected Foci In R-Mix Cell Cultures (influenza B; E64 5 micrograms/ml): 328 | Number of Infected Foci In R-Mix Cell Cultures (influenza B; E64 10 micrograms/ml): 323 | Number of Infected Foci In R-Mix Cell Cultures (parainfluenza 3; E64 0.5 micrograms/ml): 127 | Number of Infected Foci In R-Mix Cell Cultures (parainfluenza 3; E64 5 micrograms/ml): 99

CCOC(=O)[C@H]1O[C@@H]1C(=O)N[C@@H](CC(C)C)C(=O)NCCC(C)C [(2S,3S)transepoxysuccinyl-L-leucylamido-3-methylbutane ethyl ester]
replication of SARS-coronavirus (SARS-coronavirus): inhibition in replication

CCCCC[C@H](CC(=O)NO)C(=O)N[C@H](C(=O)N1CCC[C@H]1CO)C(C)C [Actinonin]
Number of Infected Foci In R-Mix Cell Cultures (parainfluenza 2; Actinonin 10 micrograms/ml): 220 | Number of Infected Foci In R-Mix Cell Cultures (parainfluenza 2; Actinonin 20 micrograms/ml): 196 | Number of Infected Foci In R-Mix Cell Cultures (parainfluenza 2; Actinonin 40 micrograms/ml): 151 | Number of Infected Foci In R-Mix Cell Cultures (RSV; Actinonin 10 micrograms/ml): 103 | Number of Infected Foci In R-Mix Cell Cultures (RSV; Actinonin 20 micrograms/ml): 64 | Number of Infected Foci In R-Mix Cell Cultures (RSV; Actinonin 40 micrograms/ml): 41 | Number of Infected Foci In R-Mix Cell Cultures (parainfluenza 1; Actinonin 10 micrograms/ml): 222 | Number of Infected Foci In R-Mix Cell Cultures (parainfluenza 1; Actinonin 20 micrograms/ml): 191 | Number of Infected Foci In R-Mix Cell Cultures (parainfluenza 1; Actinonin 40 micrograms/ml): 160 | Number of Infected Foci In R-Mix Cell Cultures (adenovirus; Actinonin 10 micrograms/ml): 781 | Number of Infected Foci In R-Mix Cell Cultures (adenovirus; Actinonin 20 micrograms/ml): 383 | Number of Infected Foci In R-Mix Cell Cultures (adenovirus; Actinonin 40 micrograms/ml): 147 | Number of Infected Foci In R-Mix Cell Cultures (influenza A; Actinonin 10 micrograms/ml): 171 | Number of Infected Foci In R-Mix Cell Cultures (influenza A; Actinonin 20 micrograms/ml): 122 | Number of Infected Foci In R-Mix Cell Cultures (influenza A; Actinonin 40 micrograms/ml): 118 | Number of Infected Foci In R-Mix Cell Cultures (influenza B; Actinonin 10 micrograms/ml): 317 | Number of Infected Foci In R-Mix Cell Cultures (influenza B; Actinonin 20 micrograms/ml): 260 | Number of Infected Foci In R-Mix Cell Cultures (influenza B; Actinonin 40 micrograms/ml): 190 | Number of Infected Foci In R-Mix Cell Cultures (parainfluenza 3; Actinonin 10 micrograms/ml): 115 | Number of Infected Foci In R-Mix Cell Cultures (parainfluenza 3; Actinonin 20 micrograms/ml): 104 | Number of Infected Foci In R-Mix Cell Cultures (parainfluenza 3; Actinonin 40 micrograms/ml): 75

CC1(C)[C@@H](O[C@H]2O[C@H](C(=O)O)[C@@H](O)[C@H](O)[C@H]2O[C@@H]2O[C@H](C(=O)O)[C@@H](O)[C@H](O)[C@H]2O)CC[C@]2(C)[C@H]3C(=O)C=C4[C@@H]5C[C@@](C)(C(=O)O)CC[C@]5(C)CC[C@@]4(C)[C@]3(C)CC[C@@H]12 [Glycycrrhizin, Glycyrrhizin]
Number of Infected Foci In R-Mix Cell Cultures (parainfluenza 2; [1]): 265 | Number of Infected Foci In R-Mix Cell Cultures (parainfluenza 2; [2]): 257 | Number of Infected Foci In R-Mix Cell Cultures (parainfluenza 2; [3]): 281 | Number of Infected Foci In R-Mix Cell Cultures (RSV; [1]): 130 | Number of Infected Foci In R-Mix Cell Cultures (RSV; [2]): 103 | Number of Infected Foci In R-Mix Cell Cultures (RSV; [3]): 53 | Number of Infected Foci In R-Mix Cell Cultures (parainfluenza 1; [1]): 268 | Number of Infected Foci In R-Mix Cell Cultures (parainfluenza 1; [2]): 233 | Number of Infected Foci In R-Mix Cell Cultures (parainfluenza 1; [3]): 295 | Number of Infected Foci In R-Mix Cell Cultures (adenovirus; [1]): 766 | Number of Infected Foci In R-Mix Cell Cultures (adenovirus; [2]): 938 | Number of Infected Foci In R-Mix Cell Cultures (adenovirus; [3]): 1061 | Number of Infected Foci In R-Mix Cell Cultures (influenza A; [1]): 218 | Number of Infected Foci In R-Mix Cell Cultures (influenza A; [2]): 175 | Number of Infected Foci In R-Mix Cell Cultures (influenza A; [3]): 163 | Number of Infected Foci In R-Mix Cell Cultures (influenza B; [1]): 426 | Number of Infected Foci In R-Mix Cell Cultures (influenza B; [2]): 402 | Number of Infected Foci In R-Mix Cell Cultures (influenza B; [3]): 273 | Number of Infected Foci In R-Mix Cell Cultures (parainfluenza 3; [1]): 138 | Number of Infected Foci In R-Mix Cell Cultures (parainfluenza 3; [2]): 149 | Number of Infected Foci In R-Mix Cell Cultures (parainfluenza 3; [3]): 138
